Reference: patent publication US8629277B2, “Styrenyl 1,2,4-oxadiazole compounds” (Piramal Enterprises Limited, priority 2010, dated 2014)
Like-named read-outs stand apart in the source and are kept apart here. Each block holds one compound with its values, some of them ahead of it.

Columns and labels:
Ba/F3 Bcr-Abl/T315I [1] = biological target: Ba/F3 Bcr-Abl/T315I (Homo sapiens, UniProt P00519, T315I, cells depend on it)
Text: Cell Proliferation and Cytotoxicity CCK-8 Assay:
Cell Counting Kit-8 (CCK-8) assay is a sensitive colorimetric assay for the determination of number of viable cells in cell proliferation and cytotoxicity assays. Cell Counting Kit-8 (CCK-8) utilizes Dojindo's highly water-soluble tetrazolium salt. The amount of the formazan dye generated by dehydrogenases in cells is directly proportional to the number of living cells.
The cell lines described in Table 1 were used to test the antiproliferative activity of the compounds of the present invention.
Cells were seeded at a density of ˜5×10^3 per well (0.09 mL) in a transparent 96-well tissue culture plate (NUNC, USA) and allowed to incubate at 37° C., 5% CO2 incubator for 2-6 h. Different concentrations of compounds of the present invention were added to the wells of the culture plate in triplicate. […] Plates were further incubated in an incubator at 37° C. in presence of 5% CO2 for 72 h. 10 μL of the CCK-8 solution was added to each well and plate was incubated for 1-4 h in the incubator. The absorbance was measured at 450 nm using a microplate reader. The percent inhibition and IC50 were calculated in comparison with control values.

Ba/F3 Bcr-Abl/F317L = biological target: T1, Ba/F3 Bcr-Abl/F317L (Homo sapiens, UniProt P00519, F317L, cells depend on it); assay: Cell proliferation and cytotoxicity CCK-8 assay; assay type: cell-based; settings: mouse, 72 h
T1 construct: fused on or other part: P11274 (Breakpoint cluster region protein)

Ba/F3 Bcr-Abl/F359V = biological target: T2, Ba/F3 Bcr-Abl/F359V (Homo sapiens, UniProt P00519, F359V, cells depend on it); assay: Cell proliferation and cytotoxicity CCK-8 assay; assay type: cell-based; settings: mouse, 72 h
T2 construct: fused on or other part: P11274 (Breakpoint cluster region protein)

Ba/F3 Bcr-Abl/H396P = biological target: T3, Ba/F3 Bcr-Abl/H396P (Homo sapiens, UniProt P00519, H396P, cells depend on it); assay: Cell proliferation and cytotoxicity CCK-8 assay; assay type: cell-based; settings: mouse, 72 h
T3 construct: fused on or other part: P11274 (Breakpoint cluster region protein)

Ba/F3 Bcr-Abl/H396R = biological target: T4, Ba/F3 Bcr-Abl/H396R (Homo sapiens, UniProt P00519, H396R, cells depend on it); assay: Cell proliferation and cytotoxicity CCK-8 assay; assay type: cell-based; settings: mouse, 72 h
T4 construct: fused on or other part: P11274 (Breakpoint cluster region protein)

Ba/F3 Bcr-Abl/M351T = biological target: T5, Ba/F3 Bcr-Abl/M351T (Homo sapiens, UniProt P00519, M351T, cells depend on it); assay: Cell proliferation and cytotoxicity CCK-8 assay; assay type: cell-based; settings: mouse, 72 h
T5 construct: fused on or other part: P11274 (Breakpoint cluster region protein)

Ba/F3 Bcr-Abl/Q252H = biological target: T6, Ba/F3 Bcr-Abl/Q252H (Homo sapiens, UniProt P00519, Q252H, cells depend on it); assay: Cell proliferation and cytotoxicity CCK-8 assay; assay type: cell-based; settings: mouse, 72 h
T6 construct: fused on or other part: P11274 (Breakpoint cluster region protein)

Ba/F3 Bcr-Abl/Y253H = biological target: T7, Ba/F3 Bcr-Abl/Y253H (Homo sapiens, UniProt P00519, Y253H, cells depend on it); assay: Cell proliferation and cytotoxicity CCK-8 assay; assay type: cell-based; settings: mouse, 72 h
T7 construct: fused on or other part: P11274 (Breakpoint cluster region protein)

K562 = assay: Flow cytometric analysis of apoptosis (PI staining); assay type: cell-based, human
Procedure: (§1) Effect of the Compounds of Present Invention in Bcr-Abl Mutated Imatinib Mesylate-Resistant Cell Lines on Cell Cycle and Apoptosis Using Flow Cytometry.
(§2) The assay was carried out as in reference, FEBS Letters, 2007, 581, 7, 1329-1334. […] At the end of incubation, cells were harvested by centrifugation at 1000 rpm for 10 minutes, washed with phosphate buffered saline (PBS) and gradually resuspended in 70% ice-cold ethanol (to facilitate the permeablisation of stains). Cell suspension was stored for a minimum period of 4 h before staining with propidium iodide (PI). Fixed cells were stained with PI (80 μg/mL) in presence of RNase A (50 μg/mL), and read on Becton Dickinson FACS Calibur (USA) for cell cycle analysis.

Ba/F3 = assay: as above; assay type: cell-based
Procedure: as §1, §2

E255V = assay: as above; assay type: cell-based
Procedure: as §1, §2

T315I = assay: as above; assay type: cell-based
Procedure: as §1, §2

Y253 = assay: as above; assay type: cell-based
Procedure: as §1, §2

Ba/F3 Bcr-Abl/T315I [2] = assay: In-vivo efficacy in imatinib-resistant xenograft model in SCID mice; settings: 200 mpk b.i.d., p.o.
Procedure: Cell lines Ba/F3 transfectants expressing full-length wild type imatinib sensitive (Ba/F3 Bcr-Abl/WT) or mutated imatinib resistant (Ba/F3 Bcr-Abl/T315I) were used in this study.
Required compound was weighed and admixed with 0.5% (w/v) carboxymethylcellulose (CMC) and triturated with Tween-20 (secundum artum) with gradual addition of water to make up the final concentration.
Ba/F3 Bcr-Abl/WT cells and Ba/F3 Bcr-Abl/T315I cells were grown in RPMI1640 medium containing 10% fetal calf serum in 5% CO2 incubator at 37° C. Cells were pelleted by centrifugation at 1000-rpm for 10 minutes. Cells were resuspended in saline to get a count of 80-100×10^6 cells per mL, 0.2 mL of this cell suspension was injected by subcutaneous (s.c.) route in SCID mice. Mice were observed alternate days for palpable tumor mass. Once the tumor size reached a size of 5-7 mm in diameter, animals were randomized into respective treatment groups. Dose of control or test compound was administered every day. Tumor size was recorded at 2-5 day intervals. Tumor weight (mg) was estimated according to the formula for a prolate ellipsoid: {Length (mm)×[width (mm)^2]×0.5} assuming specific gravity to be one and π to be three. Tumor growth in compound treated animals is calculated as T/C (Treated/Control)×100% and Growth inhibition Percent (GI %) was [100−T/C %].

[3] = mouse, ba/f3 bcr-abl/t315i, 72 h
[4] = read-out: Inhibitory concentrations (IC50) Ba/F3 Bcr-Abl/T315I, imatinib resistant cell line, CCK-8, 72 h

GI50 (Ba/F3 Bcr-Abl/T315I [1]; [3]): 1880 ± 310 nM
GI50 (Ba/F3 Bcr-Abl/T315I [1]; [4]): < 10000 nM
Compound: Oc1ccc(C=Cc2nc(Cc3ccccc3)no2)cc1O [Compound of Example 4, 4-[2-(3-Benzyl-[1,2,4]oxadiazol-5-yl)-vinyl]-benzene-1,2-diol]
GI50 (Ba/F3 Bcr-Abl/F317L): 2850 ± 350 nM
GI50 (Ba/F3 Bcr-Abl/F359V): 3000 ± 700 nM
GI50 (Ba/F3 Bcr-Abl/H396P): 2600 ± 1200 nM
GI50 (Ba/F3 Bcr-Abl/H396R): 3050 ± 70 nM
GI50 (Ba/F3 Bcr-Abl/M351T): 7500 ± 700 nM
GI50 (Ba/F3 Bcr-Abl/Q252H): 3650 ± 650 nM
GI50 (Ba/F3 Bcr-Abl/Y253H): 2500 ± 750 nM
% Apoptosis by Flow Cytometry Analysis (K562; 3X IC50, 96 h time point): 10%
% Apoptosis by Flow Cytometry Analysis (K562; 5X IC50, 48 h time point): 12.2%
% Apoptosis by Flow Cytometry Analysis (K562; 5X IC50, 96 h time point): 5.2%
% Apoptosis by Flow Cytometry Analysis (Ba/F3; 3X IC50, 96 h time point): 97%
% Apoptosis by Flow Cytometry Analysis (Ba/F3; 5X IC50, 48 h time point): 46%
% Apoptosis by Flow Cytometry Analysis (Ba/F3; 5X IC50, 96 h time point): 93%
% Apoptosis by Flow Cytometry Analysis (E255V; 3X IC50, 96 h time point): 94.4%
% Apoptosis by Flow Cytometry Analysis (E255V; 5X IC50, 48 h time point): 93%
% Apoptosis by Flow Cytometry Analysis (E255V; 5X IC50, 96 h time point): 97.4%
% Apoptosis by Flow Cytometry Analysis (T315I; 3X IC50, 96 h time point): 80.58%
% Apoptosis by Flow Cytometry Analysis (T315I; 5X IC50, 48 h time point): 98.2%
% Apoptosis by Flow Cytometry Analysis (T315I; 5X IC50, 96 h time point): 63.9%
% Apoptosis by Flow Cytometry Analysis (Y253; 3X IC50, 96 h time point): 70.6%
% Apoptosis by Flow Cytometry Analysis (Y253; 5X IC50, 48 h time point): 89%
% Apoptosis by Flow Cytometry Analysis (Y253; 5X IC50, 96 h time point): 96.6%
Tumor growth inhibition percent (% GI) Ba/F3 Bcr-Abl/T315I (Ba/F3 Bcr-Abl/T315I [2]): 65%

GI50 (Ba/F3 Bcr-Abl/T315I [1]; [3]): 2320 ± 680 nM
GI50 (Ba/F3 Bcr-Abl/T315I [1]; [4]): < 10000 nM
Compound: CCCc1noc(C=Cc2ccc(O)c(O)c2)n1 [Compound of Example 3, 4-[2-(3-Propyl-[1,2,4]oxadiazol-5-yl)-vinyl]-benzene-1,2-diol]
GI50 (Ba/F3 Bcr-Abl/F317L): 1950 ± 210 nM
GI50 (Ba/F3 Bcr-Abl/F359V): 2000 ± 420 nM
GI50 (Ba/F3 Bcr-Abl/H396P): 2000 ± 980 nM
GI50 (Ba/F3 Bcr-Abl/H396R): 2250 ± 770 nM
GI50 (Ba/F3 Bcr-Abl/M351T): 5700 ± 1700 nM
GI50 (Ba/F3 Bcr-Abl/Q252H): 2600 ± 840 nM
GI50 (Ba/F3 Bcr-Abl/Y253H): 1700 ± 780 nM
% Apoptosis by Flow Cytometry Analysis (K562; 3X IC50, 96 h time point): 5%
% Apoptosis by Flow Cytometry Analysis (K562; 5X IC50, 48 h time point): 12.7%
% Apoptosis by Flow Cytometry Analysis (K562; 5X IC50, 96 h time point): 3.4%
% Apoptosis by Flow Cytometry Analysis (Ba/F3; 3X IC50, 96 h time point): 95%
% Apoptosis by Flow Cytometry Analysis (Ba/F3; 5X IC50, 48 h time point): 46%
% Apoptosis by Flow Cytometry Analysis (Ba/F3; 5X IC50, 96 h time point): 84%
% Apoptosis by Flow Cytometry Analysis (E255V; 3X IC50, 96 h time point): 78%
% Apoptosis by Flow Cytometry Analysis (E255V; 5X IC50, 48 h time point): 91.2%
% Apoptosis by Flow Cytometry Analysis (E255V; 5X IC50, 96 h time point): 90.9%
% Apoptosis by Flow Cytometry Analysis (T315I; 3X IC50, 96 h time point): 78%
% Apoptosis by Flow Cytometry Analysis (T315I; 5X IC50, 48 h time point): 97.6%
% Apoptosis by Flow Cytometry Analysis (T315I; 5X IC50, 96 h time point): 85%
% Apoptosis by Flow Cytometry Analysis (Y253; 3X IC50, 96 h time point): 62%
% Apoptosis by Flow Cytometry Analysis (Y253; 5X IC50, 48 h time point): 87.5%
% Apoptosis by Flow Cytometry Analysis (Y253; 5X IC50, 96 h time point): 94.9%
Tumor growth inhibition percent (% GI) Ba/F3 Bcr-Abl/T315I (Ba/F3 Bcr-Abl/T315I [2]): 54%
